Source: US20220169660A1, “CYCLIC AMINO-PYRAZINECARBOXAMIDE COMPOUNDS AND USES THEREOF” (SILVERBACK THERAPEUTICS, INC., priority 2019, published 2022)
pEC50: −log10 of the molar value.

Key:
[1] = tested on: TGFβ/SMAD Singling Pathway SBE reporter cell line; assay: TGFβ reporter assay (in vitro small molecule screening); type: cell-based; conditions: SBE luciferase reporter cells, TGFβ stimulation, 18 h, luminescence
Method: TGFβ/SMAD Singling Pathway SBE reporter cell line was obtained from BPS Bioscience. Cells were passed, expanded, and stored in liquid nitrogen as per the supplier's instructions with the exception that growth media is changed to DMEM-C with Geneticin (DMEM supplemented with 10% fetal bovine serum, 1×NEAA, 1 mM Pyruvate, 2 mM glutamine, 50 μg/mL penicillin, 50 U/mL streptomycin and 400 μg/mL of Geneticin). The assay media was MEM supplemented with […] fetal bovine serum, 1×NEAA, 1 mM Pyruvate, 50 μg/mL penicillin and 50 U/mL streptomycin.
Test samples (at desired concentrations diluted in assay media) were added to a 96-well assay plate, 20 μL per well. Reporter cells were harvested from the tissue culture flasks by incubation in small quantity of PBS at 37° C. for two minutes after the media in the flask is removed and cells rinsed with PBS. Cells were counted and diluted in the assay media at approximately 0.5×10^6 cells/mL and then 80 μL/well of cells were added to the assay plate containing the 20 μL/well of test samples (or media only), and incubated for approximately 5-6 hours at 37° C. in a 5% CO2 humidified incubator. After that time, 15 μL of TGFβ diluted to 12 ng/mL in the assay media was added to the plate. Controls included TGFβ titration (from 50 to 0 ng/mL) without inhibitors, and media only (without cells, inhibitor or TGFβ). Plates were incubated at 37° C. in a 5% CO2 humidified incubator for 18 h. Luciferase substrate solution is subsequently added at 100 μL per well, incubated in the dark at room temperature for 15 min, and luminescence is measured using a luminometer. EC50 values and curve fits were obtained using Prism (GraphPad Software).

TGFBR2 = molecular target: T1, TGFBR2 (Homo sapiens, UniProt P37173); assay: TGFBR2 RBC enzyme assay (Reaction Biology Corp.); type: biochemical
T1 construct: purchased Reaction Biology Corp
Method: Compounds of the disclosure were assayed by Reaction Biology Corp. using the TGFBR2 RBC enzyme assay.

T1 sequence (P37173 23-567): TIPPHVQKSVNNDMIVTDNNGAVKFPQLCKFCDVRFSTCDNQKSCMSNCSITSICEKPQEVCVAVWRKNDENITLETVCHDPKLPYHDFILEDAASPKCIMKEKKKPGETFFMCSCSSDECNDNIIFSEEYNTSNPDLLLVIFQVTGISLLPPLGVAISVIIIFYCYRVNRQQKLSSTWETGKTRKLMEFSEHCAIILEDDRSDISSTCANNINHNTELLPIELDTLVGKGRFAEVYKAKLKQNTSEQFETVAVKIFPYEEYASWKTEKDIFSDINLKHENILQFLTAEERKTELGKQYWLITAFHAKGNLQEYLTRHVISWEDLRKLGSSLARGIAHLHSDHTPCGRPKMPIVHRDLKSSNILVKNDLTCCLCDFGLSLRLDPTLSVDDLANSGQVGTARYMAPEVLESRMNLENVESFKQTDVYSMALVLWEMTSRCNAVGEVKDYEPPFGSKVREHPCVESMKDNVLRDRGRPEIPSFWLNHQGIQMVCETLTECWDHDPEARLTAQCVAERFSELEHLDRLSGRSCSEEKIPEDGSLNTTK

| Compound | pEC50 [1] | pEC50 (TGFBR2) |
| --- | --- | --- |
| CC(C)(C)OC(=O)N1C[C@H]2C[C@H]1COc1ccncc1NC(=O)c1nc(cnc1N)-c1cccc(c1)O2 (racemic) [Compound 39, (±)-tert-butyl(4^3,4^5-trans)-1^5-amino-9-oxo-3,6-dioxa-8-aza-1(2,6)-pyrazina-7(4,3)-pyridina-4(3,5)-pyrrolidina-2(1,3)-benzenacyclononaphane-41-carboxylate] | < 5.30 | < 6.00 |
| Nc1ncc2nc1C(=O)Nc1cnccc1N1CCOC(COc3cccc-2c3)C1 (stereo not drawn) [Compound 8, 5^3-amino-7-oxa-3-aza-1(4,2)-morpholina-5(2,6)-pyrazina-2(4,3)-pyridina-6(1,3)-benzenacyclooctaphan-4-one] | 5.30 to 6.00 | 6.00 to 7.00 |
| Nc1ncc2nc1C(=O)Nc1cnccc1NCCCCOc1cccc-2c1 [Compound 2, 2^5-amino-11-oxa-4,6-diaza-2(2,6)-pyrazina-5(3,4)-pyridina-1(1,3)-benzenacycloundecaphan-3-one] | < 5.30 | < 6.00 |
| Nc1ncc2nc1C(=O)Nc1cnccc1O[C@H]1CC[C@H](CC1)Oc1cccc-2c1 [Compound 43, (4^1,4^4-cis)-1^5-amino-3,5-dioxa-7-aza-1(2,6)-pyrazina-6(4,3)-pyridina-2(1,3)-benzena-4(1,4)-cyclohexanacyclooctaphan-8-one] | < 5.30 | < 6.00 |
| CN1CCN(C)c2ccncc2NC(=O)c2nc(cnc2N)-c2ccc(OCCCN)c(c2)C1=O [Compound 56, 2^5-amino-1^4-(3-aminopropoxy)-6,9-dimethyl-4,6,9-triaza-2(2,6)-pyrazina-5(3,4)-pyridina-1(1,3)-benzenacyclodecaphene-3,10-dione] | 5.30 to 6.00 | 7.00 to 9.00 |
| CN1CCCCCOc2cccc(c2)-c2cnc(N)c(n2)C(=O)Nc2cnccc21 [Compound 9, 2^5-amino-6-methyl-12-oxa-4,6-diaza-2(2,6)-pyrazina-5(3,4)-pyridina-1(1,3)-benzenacyclododecaphan-3-one] | 6.00 to 9.00 | 7.00 to 9.00 |
| Nc1ncc2nc1C(=O)Nc1cnccc1NCCOCCOCCOc1cccc-2c1 [Compound 1, 2^5-amino-9,12,15-trioxa-4,6-diaza-2(2,6)-pyrazina-5(3,4)-pyridina-1(1,3)-benzenacyclopentadecaphan-3-one] | < 5.30 | < 6.00 |
| Nc1ncc2nc1C(=O)Nc1cnccc1N1CCC(CC1)Oc1cccc-2c1 [Compound 23, 1^5-amino-3-oxa-6-aza-1(2,6)-pyrazina-5(4,3)-pyridina-4(4,1)-piperidina-2(1,3)-benzenacycloheptaphan-7-one] | < 5.30 | < 6.00 |
| Cc1cc2cc(c1)-c1cnc(N)c(n1)C(=O)Nc1cnccc1N(C)CCCO2 [Compound 10, 2^5-amino-1^5,6-dimethyl-10-oxa-4,6-diaza-2(2,6)-pyrazina-5(3,4)-pyridina-1(1,3)-benzenacyclodecaphan-3-one] | 6.00 to 9.00 | 7.00 to 9.00 |
| CN1CCCCc2cc(ccc2OCCCN)-c2cnc(N)c(n2)C(=O)Nc2cnccc21 [Compound 63, 2^5-amino-1^4-(3-aminopropxy)-6-methyl-4,6-diaza-2(2,6)-pyrazina-5(3,4)-pyridina-1(1,3)-benzenacyclodecaphan-3-one] | 6.00 to 9.00 | 7.00 to 9.00 |
| Nc1ncc2nc1C(=O)Nc1cnccc1NCCOCCOCCOCCOc1cccc-2c1 [Compound 7, 2^5-amino-9,12,15,18-tetraoxa-4,6-diaza-2(2,6)-pyrazina-5(3,4)-pyridina-1(1,3)-benzenacyclooctadecaphan-3-one] | < 5.30 | < 6.00 |
| CC(C)(C)OC(=O)N1C[C@@H]2C[C@H]1COc1cccc(c1)-c1cnc(N)c(n1)C(=O)Nc1cnccc1O2 (racemic) [Compound 37, (±)-tert-butyl(5^2,5^4-cis)-1^5-amino-9-oxo-3,6-dioxa-8-aza-1(2,6)-pyrazina-7(4,3)-pyridina-5(2,4)-pyrrolidina-2(1,3)-benzenacyclononaphane-51-carboxylate] | 6.00 to 9.00 | 6.00 to 7.00 |
| CN1CCNC(=O)c2cccc(c2)-c2cnc(N)c(n2)C(=O)Nc2cnccc21 [Compound 30, 2^5-amino-6-methyl-4,6,9-triaza-2(2,6)-pyrazina-5(3,4)-pyridina-1(1,3)-benzenacyclodecaphane-3,10-dione] | < 5.30 | < 6.00 |
| CN1CCCCOc2ccccc2-c2cnc(N)c(n2)C(=O)Nc2cnccc21 [Compound 34, 2^5-amino-6-methyl-11-oxa-4,6-diaza-2(2,6)-pyrazina-5(3,4)-pyridina-1(1,2)-benzenacycloundecaphan-3-one] | 5.30 to 6.00 | 6.00 to 7.00 |
| Nc1ncc2nc1C(=O)Nc1cnccc1OCCOc1cccc-2c1 [Compound 50, 2^5-amino-6,9-dioxa-4-aza-2(2,6)-pyrazina-5(3,4)-pyridina-1(1,3)-benzenacyclononaphan-3-one] | 6.00 to 9.00 | 7.00 to 9.00 |
| CN1C[C@H](CN)Oc2ccccc2-c2cnc(N)c(n2)C(=O)Nc2cnccc21 [Compound 58, (S)-2^5-amino-8-(aminomethyl)-6-methyl-9-oxa-4,6-diaza-2(2,6)-pyrazina-5(3,4)-pyridina-1(1,2)-benzenacyclononaphan-3-one] | 5.30 to 6.00 | < 6.00 |
| Nc1ncc2nc1C(=O)Nc1cnccc1OCCOc1ccc(Br)c-2c1 [Compound 49, 2^5-amino-16-bromo-6,9-dioxa-4-aza-2(2,6)-pyrazina-5(3,4)-pyridina-1(1,3)-benzenacyclononaphan-3-one] | 6.00 to 9.00 | 7.00 to 9.00 |

Second part, the molecule after the results:

| pEC50 [1] | pEC50 (TGFBR2) | Compound |
| --- | --- | --- |
| 6.00 to 9.00 | 7.00 to 9.00 | CCCN1CCCOc2cccc(c2)-c2cnc(N)c(n2)C(=O)Nc2cnccc21 [Compound 17, 2^5-amino-6-propyl-10-oxa-4,6-diaza-2(2,6)-pyrazina-5(3,4)-pyridina-1(1,3)-benzenacyclodecaphan-3-one] |
| 6.00 to 9.00 | 6.00 to 7.00 | Nc1ncc2nc1C(=O)Nc1cnccc1OC[C@@H]1C[C@@H](CN1)Oc1cccc-2c1 (racemic) [Compound 42, (±)-(4^3,4^5-cis)-1^5-amino-3,6-dioxa-8-aza-1(2,6)-pyrazina-7(4,3)-pyridina-4(3,5)-pyrrolidina-2(1,3)-benzenacyclononaphan-9-one] |
| 6.00 to 9.00 | 7.00 to 9.00 | CN1CCC(=O)Nc2cccc(c2)-c2cnc(N)c(n2)C(=O)Nc2cnccc21 [Compound 26, 2^5-amino-6-methyl-4,6,10-triaza-2(2,6)-pyrazina-5(3,4)-pyridina-1(1,3)-benzenacyclodecaphene-3,9-dione] |
| 6.00 to 9.00 | 7.00 to 9.00 | CN1CCC(=O)N(C)c2cccc(c2)-c2cnc(N)c(n2)C(=O)Nc2cnccc21 [Compound 27, 2^5-amino-6,10-dimethyl-4,6,10-triaza-2(2,6)-pyrazina-5(3,4)-pyridina-1(1,3)-benzenacyclodecaphane-3,9-dione] |
| 6.00 to 9.00 | 7.00 to 9.00 | Nc1ncc2nc1C(=O)Nc1cnccc1SCCCOc1ccc(Br)c-2c1 [Compound 51, 2^5-amino-1^6-bromo-10-oxa-6-thia-4-aza-2(2,6)-pyrazina-5(3,4)-pyridina-1(1,3)-benzenacyclodecaphan-3-one] |
| 6.00 to 9.00 | 7.00 to 9.00 | CC1CCOc2cccc(c2)-c2cnc(N)c(n2)C(=O)Nc2cnccc2N1C (stereo not drawn) [Compound 18, 2^5-amino-6,7-dimethyl-10-oxa-4,6-diaza-2(2,6)-pyrazina-5(3,4)-pyridina-1(1,3)-benzenacyclodecaphan-3-one] |
| 6.00 to 9.00 | 7.00 to 9.00 | Nc1ncc2nc1C(=O)Nc1cnccc1O[C@@H]1CN[C@H](COc3cccc-2c3)C1 (racemic) [Compound 38, (±)-(5^2,5^4-cis)-1^5-amino-3,6-dioxa-8-aza-1(2,6)-pyrazina-7(4,3)-pyridina-5(2,4)-pyrrolidina-2(1,3)-benzenacyclononaphan-9-one] |
| 6.00 to 9.00 | 7.00 to 9.00 | CC1CCN(C)c2ccncc2NC(=O)c2nc(cnc2N)-c2cccc(c2)O1 (stereo not drawn) [Compound 19, 2^5-amino-6,9-dimethyl-10-oxa-4,6-diaza-2(2,6)-pyrazina-5(3,4)-pyridina-1(1,3)-benzenacyclodecaphan-3-one] |
| 6.00 to 9.00 | 7.00 to 9.00 | CN1CCCOc2cc(OCCCN3C(=O)c4ccccc4C3=O)cc(c2)-c2cnc(N)c(n2)C(=O)Nc2cnccc21 [Compound 14, 2-(3-((2^5-amino-6-methyl-3-oxo-10-oxa-4,6-diaza-2(2,6)-pyrazina-5(3,4)-pyridina-1(1,3)-benzenacyclodecaphane-1^5-yl)oxy)propyl)isoindoline-1,3-dione] |
| 6.00 to 9.00 | 7.00 to 9.00 | CN1CCOc2ccc(OCCCN)cc2-c2cnc(N)c(n2)C(=O)Nc2cnccc21 [Compound 64, 2^5-amino-1^5-(3-aminopropoxy)-6-methyl-9-oxa-4,6-diaza-2(2,6)-pyrazina-5(3,4)-pyridina-1(1,2)-benzenacyclononaphan-3-one] |
